Measured values reported in ChEMBL document CHEMBL1201862, “PubChem BioAssay data set” (2004).
Active and inactive are the calls of the source. Cut-off read from the data, not from the text of the source, for most assays here: actives have a measured EC50 and inactives only a lower limit.

Experiments:
[1] = biological target: T1, Heat shock factor protein 1 (Mus musculus, UniProt P38532); assay: enhancement of HSF1-driven luciferase signal – cell-based, NIH3T3, luminescence, dose retest, confirmation (AID 435004); type: functional;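 note: stress induced by proteasome inhibitor MG132 added 30 min after compound; luciferase reporter driven by HSF1 response element in NIH3T3 cells; actives raise luminescence as potentiators of the MG132 stress response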
T1 sequence (P38532 whole entry): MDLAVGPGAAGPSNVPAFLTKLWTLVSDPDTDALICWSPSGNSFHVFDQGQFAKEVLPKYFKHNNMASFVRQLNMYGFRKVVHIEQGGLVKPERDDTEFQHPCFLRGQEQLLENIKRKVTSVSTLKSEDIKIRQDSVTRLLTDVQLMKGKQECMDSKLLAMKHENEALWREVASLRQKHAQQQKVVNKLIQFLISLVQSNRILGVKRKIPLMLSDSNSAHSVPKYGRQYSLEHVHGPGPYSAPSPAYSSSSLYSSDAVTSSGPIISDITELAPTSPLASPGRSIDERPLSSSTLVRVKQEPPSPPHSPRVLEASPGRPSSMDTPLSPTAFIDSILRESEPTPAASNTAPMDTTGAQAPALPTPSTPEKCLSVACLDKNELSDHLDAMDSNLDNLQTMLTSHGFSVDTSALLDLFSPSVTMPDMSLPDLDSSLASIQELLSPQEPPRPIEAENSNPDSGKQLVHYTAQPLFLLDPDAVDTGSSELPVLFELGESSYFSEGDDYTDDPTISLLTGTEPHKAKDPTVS

Protein RecA = biological target: T2, Protein RecA (Mycobacterium tuberculosis, UniProt P9WHJ3); assay: Fluorescence Cell-Free Homogeneous Dose Retest to Identify Inhibitors of RecA-Intein Splicing Activity. [Related pubchem assays (depositor defined):AID2097, AID2223, AID489010, AID492950]; type: functional
T2 sequence (P9WHJ3 whole entry): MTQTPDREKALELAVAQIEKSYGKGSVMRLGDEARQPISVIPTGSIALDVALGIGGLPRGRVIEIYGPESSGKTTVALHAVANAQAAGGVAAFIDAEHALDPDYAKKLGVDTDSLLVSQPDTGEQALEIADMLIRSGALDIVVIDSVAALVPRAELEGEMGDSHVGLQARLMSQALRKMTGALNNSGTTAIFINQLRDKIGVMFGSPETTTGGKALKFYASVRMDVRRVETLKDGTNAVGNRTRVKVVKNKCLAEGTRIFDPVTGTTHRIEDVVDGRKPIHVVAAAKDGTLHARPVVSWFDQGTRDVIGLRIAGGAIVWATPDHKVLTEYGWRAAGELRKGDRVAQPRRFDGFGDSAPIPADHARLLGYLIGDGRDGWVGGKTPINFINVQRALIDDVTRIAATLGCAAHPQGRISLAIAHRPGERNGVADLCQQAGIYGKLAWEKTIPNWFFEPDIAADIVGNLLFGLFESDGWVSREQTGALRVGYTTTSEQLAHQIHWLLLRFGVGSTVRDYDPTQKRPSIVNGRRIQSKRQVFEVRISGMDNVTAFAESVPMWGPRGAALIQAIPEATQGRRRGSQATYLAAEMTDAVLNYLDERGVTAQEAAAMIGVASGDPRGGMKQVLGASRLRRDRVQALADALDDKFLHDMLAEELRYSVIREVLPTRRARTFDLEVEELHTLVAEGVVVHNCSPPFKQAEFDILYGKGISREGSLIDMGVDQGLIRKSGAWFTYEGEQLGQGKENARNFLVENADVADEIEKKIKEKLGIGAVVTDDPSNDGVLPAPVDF

[2] = biological target: Luciferin 4-monooxygenase (Photinus pyralis, UniProt P08659); assay: inhibition of purified Photinus pyralis luciferase – biochemical, luminescence, dose response (AID 1891)
Cytochrome P450 1A2 = biological target: T3, Cytochrome P450 1A2 (Homo sapiens, UniProt P05177);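 note: PubChem cytochrome P450 panel assay, CYP1A2 panel member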
T3 sequence (P05177 whole entry): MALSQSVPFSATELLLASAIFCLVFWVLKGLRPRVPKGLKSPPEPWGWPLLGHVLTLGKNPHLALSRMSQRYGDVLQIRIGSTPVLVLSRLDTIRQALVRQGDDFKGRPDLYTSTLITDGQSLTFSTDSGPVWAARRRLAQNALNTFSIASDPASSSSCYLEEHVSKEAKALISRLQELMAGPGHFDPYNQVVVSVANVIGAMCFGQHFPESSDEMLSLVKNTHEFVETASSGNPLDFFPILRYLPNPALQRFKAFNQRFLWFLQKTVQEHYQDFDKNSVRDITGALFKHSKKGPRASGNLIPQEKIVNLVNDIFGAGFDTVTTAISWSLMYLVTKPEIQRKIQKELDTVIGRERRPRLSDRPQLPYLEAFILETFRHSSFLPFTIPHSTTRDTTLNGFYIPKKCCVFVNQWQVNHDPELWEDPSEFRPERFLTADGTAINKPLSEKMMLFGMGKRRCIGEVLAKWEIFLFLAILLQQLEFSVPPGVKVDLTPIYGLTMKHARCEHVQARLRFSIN

[3] = Luminescence Cell-Based Dose Confirmation HTS to Identify Inhibitors of Platelet Dense Granule Release. [Related pubchem assays: 1663 (Primary HTS), 1678 (Summary of Project)]; type: functional
H4 = assay: Luminescence Cell-Based Dose Response HTS to Identify Activators of 5'UTR Stem-Loop Driven Prion Protein mRNA Translation in H4 Neuroglioblastoma Cells. [Related pubchem assays: 1829 (Project Summary), 1814 (Primary HTS)]; type: functional; conditions: Homo sapiens
[4] = Luminescence Cell-Based Dose Response HTS to Identify Activators of Luciferase Translation or Activity in H4 […] Cells. [Related pubchem assays: 1829 (Project Summary), 1814 (Primary HTS)]; type: functional
[5] = Luminescence Cell-Based Dose Confirmation HTS to Identify Activators of 5'UTR Stem-Loop Driven Alpha-Synuclein mRNA Translation in H4 Neuroglioblastoma Cells. [Related pubchem assays: 1829 (Project Summary), 1814 (Primary HTS)]; type: functional
[6] = microbe, parasite or virus in culture; type: functional; conditions: Mycobacterium tuberculosis
Streptococcus = assay: GAS UMAA2166 growth inhibition – luminescence, BacTiterGlo, counter-screen for streptokinase expression inhibitor project, dose response (AID 1915); type: functional, organism-based;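 note: potency for reduction of bacterial viability or growth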
[7] = test system: Streptococcus sp. 'group A'; assay: Streptococcus pyogenes SK(-)GAS viability under kanamycin – luminescence, BacTiterGlo, confirmation, counter-screen for streptokinase expression inhibitor project, dose response (AID 1900); type: functional, organism-based
[8] = luciferase reporter signal suppression in cells – H4 neuroglioma cells, luminescence, dose response (AID 1990); type: functional, cell-based
[9] = Luminescence Cell-Based Dose Response HTS to Identify Inhibitors of 5'UTR Stem-Loop Driven Prion Protein mRNA Translation in H4 Neuroglioblastoma Cells. [Related pubchem assays: 1827 (Project Summary), 1813 (Primary HTS)]; type: functional
[10] = alpha-synuclein stem-loop luciferase translation blockers – H4 neuroglioma cells, luminescence, confirmation (AID 1988); type: functional, cell-based

Sequence of Luciferin 4-monooxygenase (P08659 whole entry): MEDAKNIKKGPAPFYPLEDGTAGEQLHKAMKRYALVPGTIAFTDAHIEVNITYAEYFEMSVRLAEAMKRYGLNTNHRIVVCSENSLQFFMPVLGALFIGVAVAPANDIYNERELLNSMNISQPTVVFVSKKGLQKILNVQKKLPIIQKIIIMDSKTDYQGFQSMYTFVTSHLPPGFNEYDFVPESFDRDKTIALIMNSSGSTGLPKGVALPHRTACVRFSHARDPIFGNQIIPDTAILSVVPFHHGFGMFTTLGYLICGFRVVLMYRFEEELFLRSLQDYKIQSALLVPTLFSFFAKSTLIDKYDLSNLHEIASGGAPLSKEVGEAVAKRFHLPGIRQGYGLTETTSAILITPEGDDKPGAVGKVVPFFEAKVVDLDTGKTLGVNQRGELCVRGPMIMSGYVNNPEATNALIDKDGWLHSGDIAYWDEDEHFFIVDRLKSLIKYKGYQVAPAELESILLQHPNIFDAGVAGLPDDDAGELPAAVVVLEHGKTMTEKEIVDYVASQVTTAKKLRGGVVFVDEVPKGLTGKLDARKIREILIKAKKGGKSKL

## Cc1ccc2nc(-c3ccc4c(c3)OCCO4)cc(C(=O)O)c2c1
[1]
  EC50: > 260 µM (inactive)

## Cc1n[nH]c(O)c1[C@@H](c1ccccc1[N+](=O)[O-])C(C#N)C#N
Protein RecA
  EC50: 2.63 µM (active)

## COC(=O)C1CSC(C(=O)OC)N1C(=O)Nc1ccccc1 (stereo unspecified)
[2]
  EC50: > 112 µM (not active)
Cytochrome P450 1A2
  AC50: 25.1 µM (inconclusive)
[3]
  EC50: > 112 µM (not active)

## CC(C)(CO)NCC(O)COc1ccc2c(c1)CCC2 (stereo unspecified)
[2]
  EC50: > 112 µM (not active)
[3]
  EC50: > 112 µM (not active)

## CCN(CC)S(=O)(=O)c1ccc(OC)c(NC(=O)c2cc3c(=O)n4ccccc4nc3s2)c1
[1]
  EC50: > 260 µM (inactive)

## CN(Cc1ccccc1)C(=O)CCC1CCN(C(=O)CC2=CCCCC2)CC1
[1]
  EC50: > 260 µM (inactive)

## Cc1c(C(=O)N(Cc2ccncc2)CC2CCCO2)oc2c(F)cccc12 (stereo unspecified)
[1]
  EC50: > 260 µM (inactive)

## COC(=O)c1cc(NC2c3ccccc3C(=O)N2c2cccnc2)cc(C(=O)OC)c1 (stereo unspecified)
[2]
  EC50: > 112 µM (not active)
[3]
  EC50: > 112 µM (not active)

## Cc1ccc(C(=O)NCCn2cc(SCC(=O)Nc3nnc(C)s3)c3ccccc32)cc1
[2]
  EC50: > 112 µM (not active)
H4
  EC50: > 120 µM (not active)
[3]
  EC50: > 112 µM (not active)
[4]
  EC50: 23.2 µM (active)
[5]
  EC50: 7.83 µM (active)

## Cc1ccc(O)c(C(=O)c2cnc3c(c2)CN(CCC(C)C)C(=O)N3)c1
[1]
  EC50: > 260 µM (inactive)

## Cc1cc(C)n2nc(SCc3cc(=O)oc4cc(C)c(C)cc34)nc2n1
[2]
  EC50: > 112 µM (not active)
[3]
  EC50: > 112 µM (not active)

## CCCCc1ccc(-c2ccc(Br)cc2)nc1
[1]
  EC50: > 260 µM (inactive)

## COc1ccc(CN2CCCC(C(=O)c3ccc(SC)cc3)C2)cc1Cn1cccn1 (stereo unspecified)
[6]
  CC50: > 40 µM (active)

## O=C(NC1CCCCC1)C1CCCN1S(=O)(=O)c1cccc2nsnc12 (stereo unspecified)
[1]
  EC50: > 260 µM (inactive)

## Cc1sc2ncnc(N3CCC(C(=O)NCC(=O)Nc4ccc(F)c(F)c4)CC3)c2c1C
[6]
  CC50: 30.4 µM (active)
Streptococcus
  EC50: 8.01 µM (active)
[7]
  EC50: 4.44 µM (active)

## CCC(=O)N1c2ccc(S(=O)(=O)CCC(=O)N3CCN(c4ccccc4F)CC3)cc2CC1C (stereo unspecified)
[2]
  EC50: > 112 µM (not active)
[3]
  EC50: > 112 µM (not active)

## CCOc1ccc2nc(NC(=O)c3ccc(C)o3)sc2c1
[2]
  EC50: 0.562 µM (active)
[3]
  EC50: 5.87 µM (active)

## CN1C(C(=O)NCc2ccc(OC(F)(F)F)cc2)CC2Cn3c(nc4cc(Cl)c(Cl)cc43)C21 (stereo unspecified)
[6]
  CC50: 34.1 µM (active)

## Cc1cccc(C2c3[nH]c4ccccc4c3CCN2Cc2cnn(-c3ccc(F)cc3)c2)n1 (stereo unspecified)
[1]
  EC50: > 260 µM (inactive)

## CCOc1ccc(N2C=Nc3ccc(OCC)cc3C2)cc1
[6]
  CC50: > 40 µM (active)

## Cc1onc(-c2ccccc2)c1C(=O)N=C(N)c1ccc(Cl)cc1
[2]
  EC50: > 112 µM (not active)
[3]
  EC50: 28.4 µM (active)

## CC(Nc1cc(N2CCNCC2)ccc1[N+](=O)[O-])c1ccccc1 (stereo unspecified)
[8]
  EC50: > 120 µM (not active)
[9]
  EC50: > 120 µM (not active)
[10]
  EC50: 33.7 µM (active)
[1]
  EC50: > 260 µM (inactive)

## O=S(=O)(CCc1ccccc1)/N=C/c1cccs1
[2]
  EC50: > 112 µM (not active)
[3]
  EC50: > 112 µM (not active)
